# Source: patent publication USRE48461E1, “Modulation of androgen receptor expression” (Ionis Pharmaceuticals, Inc., priority 2012, dated 2021)
# Oligonucleotides are written 5' to 3', each unit as a sugar letter and its base; * is a phosphorothioate linkage, no mark a phosphodiester; rarer units and linkages stand in square brackets, end groups in braces. Plain capitals give the bases only. k = constrained ethyl (cEt); [5mC] = 5-methylcytosine; d = 2'-deoxy (DNA)
# How the values were obtained:
# [1] = test system: AR-V7; assay: Western blot of AR-V7 in MDV3100-resistant C4-2B cells; format: cell-based, human
# Description: ISIS 549372, ISIS 549434, and ISIS 554221 at 1 μM concentration of antisense oligonucleotide were each added to the culture media at 1 μM concentration for free uptake by the cells. After a treatment period of 2 days, cells were harvested in RIPA buffer containing protease inhibitors. The presence of bands for full-length AR, as well as the variant form, AR-V7, was detected by western blot using AR antibody (N-20, Santa Cruz).
# Western analysis of full-length AR, as well as the AR-V7 variant, was also conducted in a manner similar to the assay described above.
# [2] = test system: V7 splice variant of the AR mRNA; assay: AR V7 splice variant mRNA in CWR22-RV1 cells (RT-PCR SYBR Green); format: cell-based, human; details: RNAiMax, 6 days
# [3] = test system: AR mRNA; assay: AR mRNA in C4-2B cells by free uptake (hAR_LTS00943); format: cell-based, human; details: 24 hrs; for Percent inhibition of AR full-length mRNA: free uptake
# Description: (§1) Cells were plated at a concentration of 1,000 cells/well in 96-well plates to measure cell proliferation, and at 4,000 cells/well to measure target reduction. ISIS 549458, ISIS 549372, ISIS 549434, and ISIS 554221 were added individually at 0.04 μM, 0.20 μM, 1.00 μM, or 5.00 μM. After an incubation period of 24 hrs, mRNA levels were measured using hAR_LTS00943.
# [4] = test system: CWR22-RV1 cells; assay: CWR22-RV1 cell proliferation (CellTiter 96); format: cell-based, human; details: RNAiMax, 6 days
# [5] = test system: full-length AR; assay: Western blot of full-length AR in MDV3100-resistant C4-2B cells; format: cell-based, human
# [6] = test system: C4-2B cells; assay: C4-2B cell proliferation by free uptake (MTT); format: cell-based, human; details: day 6
# Description: as §1
# On day 6, cells plated for measuring proliferation were incubated with MTT reagent until the development of color. Color intensity was measured using a spectrophotometer at 490 nm.
# [7] = test system: C4-2B MR cells; assay: Proliferation of MDV3100-resistant C4-2B cells (CellTiter 96); format: cell-based, human; details: 0.04-5.00 μM, 6 days
# Description: ISIS 549372, ISIS 549434, ISIS 549458, and ISIS 554221 were each added to the culture media at 0.04 μM, 0.20 μM, 1.00 μM, and 5.00 μM concentration of antisense oligonucleotide. ISIS 347526 was included as a negative control. After a treatment period of 6 days, the proliferative capacity of the cancer cells was measured with using CellTiter 96® AQueous One Solution Cell Proliferation kit (Promega), following the manufacturer's instructions. Results are presented in Table 41 as percent inhibition of proliferation, relative to non-treated cells.
# [8] = test system: C4-2B cells; assay: C4-2B cell proliferation, ASO in combination with MDV3100 (Example 19); format: cell-based, human
# Description: C4-2B cells were plated at 1,500 cells per well. […] ISIS 347526 was included as a negative control. […] After a treatment period of 6 days, the proliferative capacity of the cancer cells was measured with CellTiter 96® AQueous One Solution Cell Proliferation kit (Promega), following the manufacturer's instructions. Results are presented in Table 46 as percent inhibition of proliferation, relative to non-treated cells. Treatment of the cells with ISIS 549372 or ISIS 549458 reduced proliferation of the cells more extensively than treatment with ISIS 554221.
# [9] = test system: KLK3 mRNA; assay: KLK3 mRNA (AR target gene) in C4-2B MR cells; format: cell-based, human; details: C4-2B MR cells, 0.04-5.00 μM
# [10] = test system: total AR mRNA; assay: Total (full-length) AR mRNA in C4-2B MR cells, free uptake; format: cell-based, human; details: C4-2B MR cells, 0.04-5.00 μM free uptake, 24 hrs
# Description: Cells were plated at a density of 40,000 cells per well in 96-well plates and cultured in RPMI1640 medium with 10% fetal bovine serum. […] ISIS 549372, ISIS 549458, ISIS 549434, and ISIS 554221 were each added at 0.04 μM, 0.20 μM, 1.00 μM, and 5.00 μM concentrations of antisense oligonucleotide to culture media for free uptake by the cells. […] After a treatment period of 24 hrs, total AR mRNA levels were measured by quantitative real-time PCR using primer probe set RTS3559.
# [11] = test system: KLK2 mRNA; assay: KLK2 mRNA (AR target gene) in C4-2B MR cells; format: cell-based, human; details: C4-2B MR cells, 0.04-5.00 μM
# [12] = test system: AR full-length mRNA; assay: AR full-length mRNA in CWR22-RV1 cells (RNAiMax, RTS3559); format: cell-based, human; details: 6 days
# [13] = cynomolgus monkey, in vivo, sc, 40 mg/kg
# [14] = test system: MDA-MB-453 tumor; assay: Tumor volume in MDA-MB-453 breast cancer orthotopic model; format: in vivo, NSG mice; details: 50 mg/kg s.c. five times a week for 4 weeks; for Tumor volume: Study 1, MDA-MB-453 orthotopic, NSG mice
# [15] = cynomolgus monkey, in vivo, sc, 40 mg/kg; remark: listed apart in the source
# Description: The monkeys were 2-4 years old and weighed between 2 and 4 kg. Thirteen groups of four randomly assigned male cynomolgus monkeys each were injected subcutaneously with ISIS oligonucleotide or PBS. PBS solution or ISIS oligonucleotides, at a dose of 40 mg/kg, were administered with a loading regimen consisting of four doses on the first week of the study (days 1, 3, 5, and 7), followed by a maintenance regimen consisting of once weekly administration starting on Day 14 (weeks 2 to 6). Subcutaneous injections were performed in clock-wise rotations at 4 sites on the back; one site per dose. The injection sites were delineated by tattoo, while sedated using ketamine, and were separated by a minimum of 3 cm.
# To evaluate any inflammatory effect of ISIS oligonucleotides in cynomolgus monkeys, the monkeys were fasted overnight. Approximately, 1.5 mL of blood samples were collected from all the study groups on day 44. Blood was collected in tubes without anticoagulant for serum separation. The tubes were kept at room temperature for a minimum of 90 min and then centrifuged at 3,000 rpm for 10 min. C-reactive protein (CRP), which is synthesized in the liver and which serves as a marker of inflammation, was measured on day 43 using a Toshiba 120FR NEO chemistry analyzer (Toshiba Co., Japan). Complement C3 was also measured similarly, and the data is presented as a percentage of baseline values.
# [16] = cynomolgus monkey, in vivo, sc, 40 mg/kg; remark: listed apart in the source
# [17] = test system: AR mRNA; assay: AR mRNA expression in MDA-MB-453 breast cancer orthotopic model; format: in vivo, human; details: Study 1; TB-interface, normalized to actin; 50 mg/kg s.c. five times a week for 4 weeks
# [18] = cynomolgus monkey, in vivo, sc, 40 mg/kg; remark: listed apart in the source
# [19] = cynomolgus monkey, in vivo, sc, 40 mg/kg; remark: listed apart in the source
# [20] = C4-2B MR cells, 1 μM ASO free uptake, 2 days (Example 15)
sequence,measurement,setting,value
"AAGTTGTAGTAGTCGC (kA*kA*kG*dT*dT*dG*dT*dA*dG*dT*dA*dG*dT*k[5mC]*kG*k[5mC]) [ISIS 549372, targets exon 1]",levels of AR-V7 (Western analysis),[1]; C4-2B MR cells (Example 16),reduced levels of full-length AR and AR-V7
same,AR-V7 (western blot),[1]; [20],reduced full-length AR and AR-V7 more extensively than treatment with either ISIS 554221 or ISIS 549434
same,"Percent inhibition of AR splice variant, V7",[2]; dose 5.0 nM,35%
same,"Percent inhibition of AR splice variant, V7",[2]; dose 16.7 nM,56%
same,"Percent inhibition of AR splice variant, V7",[2]; dose 50.0 nM,82%
same,AR mRNA expression,[3]; free uptake 0.04-5.00 μM,inhibited AR mRNA expression more potently than ISIS 554221
same,Percent inhibition of AR full-length mRNA,[3]; dose 0.04 μM,10%
same,Percent inhibition of AR full-length mRNA,[3]; dose 0.20 μM,36%
same,Percent inhibition of AR full-length mRNA,[3]; dose 1.00 μM,73%
same,Percent inhibition of AR full-length mRNA,[3]; dose 5.00 μM,80%
same,Percent inhibition of cell proliferation,[4]; dose 5.0 nM,0%
same,Percent inhibition of cell proliferation,[4]; dose 16.7 nM,25%
same,Percent inhibition of cell proliferation,[4]; dose 50.0 nM,53%
same,levels of full-length AR (Western analysis),[5]; C4-2B MR cells (Example 16),reduced levels of full-length AR and AR-V7
same,full-length AR (western blot),[5]; [20],reduced full-length AR and AR-V7 more extensively than treatment with either ISIS 554221 or ISIS 549434
same,Percent inhibition of cell proliferation,[6]; dose 0.04 μM,8%
same,Percent inhibition of cell proliferation,[6]; dose 0.20 μM,34%
same,Percent inhibition of cell proliferation,[6]; dose 1.00 μM,44%
same,Percent inhibition of cell proliferation,[6]; dose 5.00 μM,45%
same,proliferation of C4-2B MR cells,[7],reduced proliferation of the cells in a dose dependent manner more extensively than treatment with ISIS 554221
same,Percent inhibition of C4-2B cell proliferation with 0.1 μM ASO,"[8]; 0.1 μM ASO + MDV3100 1 μM, 6 days",66%
same,Percent inhibition of C4-2B cell proliferation with 0.1 μM ASO,"[8]; 0.1 μM ASO + MDV3100 […], 6 days",44%
same,Percent inhibition of C4-2B cell proliferation with 0.1 μM ASO,"[8]; 0.1 μM ASO, MDV3100 0 μM, 6 days",23%
same,Percent inhibition of C4-2B cell proliferation with 0.2 μM ASO,"[8]; 0.2 μM ASO + MDV3100 1 μM, 6 days",77%
same,Percent inhibition of C4-2B cell proliferation with 0.2 μM ASO,"[8]; 0.2 μM ASO + MDV3100 […], 6 days",69%
same,Percent inhibition of C4-2B cell proliferation with 0.2 μM ASO,"[8]; 0.2 μM ASO, MDV3100 0 μM, 6 days",59%
same,synergy with MDV3100,[8]; C4-2B cells,synergistic with MDV3100
same,"cell proliferation inhibited, combination","[8]; C4-2B cells, 0.1 μM ASO in combination with […] MDV3100",66%
same,"inhibited cell proliferation, ASO alone","[8]; C4-2B cells, ASO alone at 0.1 μM",23%
same,"reduced cell proliferation, ASO alone","[8]; C4-2B cells, ASO alone, 6 days, Table 46 (0.1 μM ASO)",59%
same,"prostate cancer cell proliferation, ASO in combination with MDV3100","[8]; C4-2B cells, versus equal molar ISIS 554221 + MDV3100",inhibited prostate cancer cell proliferation to a greater extent than an equal molar concentration of ISIS 554221 in combination of MDV3100
same,AR target gene KLK3 mRNA levels,[9],reduced target gene levels in a dose dependent manner more extensively than treatment with ISIS 554221
same,total AR transcript levels,[10],reduced total AR transcript levels in a dose dependent manner more extensively than treatment with ISIS 554221
same,AR target gene KLK2 mRNA levels,[11],reduced target gene levels in a dose dependent manner more extensively than treatment with ISIS 554221
same,Percent inhibition of AR full-length mRNA,[12]; dose 5.0 nM,53%
same,Percent inhibition of AR full-length mRNA,[12]; dose 16.7 nM,64%
same,Percent inhibition of AR full-length mRNA,[12]; dose 50.0 nM,78%
"TGATTTAATGGTTGCA [ISIS 569216] (cEt/MOE gapmer chemistry, further chemistry not given here)",Body Wt,[13],2.6 kg
same,Heart weight,[13],9.3 g
same,Kidney weight,[13],15 g
same,Liver weight,[13],71 g
same,Mesenteric lymph nodes weight,[13],2.7 g
same,Spleen weight,[13],4.9 g
same,Tumor volume,[14]; Day 16,134
same,Tumor volume,[14]; Day 23,142
same,Tumor volume,[14]; Day 30,173
same,Tumor volume,[14]; Day 37,125
same,Tumor volume,[14]; Day 44,92
same,Tumor volume,[14]; Day 51,73
same,Tumor volumes,"[14]; Study 1, MDA-MB-453 model",tumor volumes were significantly decreased
same,C3 (% of baseline),[15],94 % of baseline
same,CRP,[15],3.6 mg/dL
same,HCT,[16],43%
same,Hemoglobin,[16],12.8 g/dL
same,Platelets,[16],504000 µL
same,RBC,[16],5.6e+06 µL
same,WBC,[16],12200 µL
same,AR mRNA expression inhibited compared to the control group,[17],48%
same,ALT,[18],75 IU/L
same,AST,[18],93 IU/L
same,Albumin,[18],3.7 g/dL
same,Plasma BUN,[19],28.4 mg/dL
same,Plasma Creatinine,[19],0.81 mg/dL
